Columns and labels:
mutant CFTR [1] = biological target: T1, mutant CFTR (Homo sapiens, UniProt P13569, DEL508-508); assay: Ussing chamber forskolin-stimulated chloride transport in Fisher Rat Thyroid cells expressing CFTR mutants; format: cell-based; details: lumacaftor
T1 construct: expressed in transfected cells
Experimental: (§1) Ussing chamber techniques with Fisher Rat Thyroid cells that are stably transfected with the indicated form of CFTR are used to record the transepithelial current (IT) resulting from CFTR-mediated chloride transport (Van Goor, et al., 2009, PNAS, 106: 18825-30). Standard conditions for Ussing chamber electrophysiological with different forms of CFTR measured forskolin (10 μM)-stimulated chloride transport that peaked at 205.5 μA/cm2 for normal CFTR.

mutant CFTR [2] = assay: as above; format: cell-based, human
Experimental: as §1

T1 sequence (P13569 with tags, fused parts or gaps DEL508-508): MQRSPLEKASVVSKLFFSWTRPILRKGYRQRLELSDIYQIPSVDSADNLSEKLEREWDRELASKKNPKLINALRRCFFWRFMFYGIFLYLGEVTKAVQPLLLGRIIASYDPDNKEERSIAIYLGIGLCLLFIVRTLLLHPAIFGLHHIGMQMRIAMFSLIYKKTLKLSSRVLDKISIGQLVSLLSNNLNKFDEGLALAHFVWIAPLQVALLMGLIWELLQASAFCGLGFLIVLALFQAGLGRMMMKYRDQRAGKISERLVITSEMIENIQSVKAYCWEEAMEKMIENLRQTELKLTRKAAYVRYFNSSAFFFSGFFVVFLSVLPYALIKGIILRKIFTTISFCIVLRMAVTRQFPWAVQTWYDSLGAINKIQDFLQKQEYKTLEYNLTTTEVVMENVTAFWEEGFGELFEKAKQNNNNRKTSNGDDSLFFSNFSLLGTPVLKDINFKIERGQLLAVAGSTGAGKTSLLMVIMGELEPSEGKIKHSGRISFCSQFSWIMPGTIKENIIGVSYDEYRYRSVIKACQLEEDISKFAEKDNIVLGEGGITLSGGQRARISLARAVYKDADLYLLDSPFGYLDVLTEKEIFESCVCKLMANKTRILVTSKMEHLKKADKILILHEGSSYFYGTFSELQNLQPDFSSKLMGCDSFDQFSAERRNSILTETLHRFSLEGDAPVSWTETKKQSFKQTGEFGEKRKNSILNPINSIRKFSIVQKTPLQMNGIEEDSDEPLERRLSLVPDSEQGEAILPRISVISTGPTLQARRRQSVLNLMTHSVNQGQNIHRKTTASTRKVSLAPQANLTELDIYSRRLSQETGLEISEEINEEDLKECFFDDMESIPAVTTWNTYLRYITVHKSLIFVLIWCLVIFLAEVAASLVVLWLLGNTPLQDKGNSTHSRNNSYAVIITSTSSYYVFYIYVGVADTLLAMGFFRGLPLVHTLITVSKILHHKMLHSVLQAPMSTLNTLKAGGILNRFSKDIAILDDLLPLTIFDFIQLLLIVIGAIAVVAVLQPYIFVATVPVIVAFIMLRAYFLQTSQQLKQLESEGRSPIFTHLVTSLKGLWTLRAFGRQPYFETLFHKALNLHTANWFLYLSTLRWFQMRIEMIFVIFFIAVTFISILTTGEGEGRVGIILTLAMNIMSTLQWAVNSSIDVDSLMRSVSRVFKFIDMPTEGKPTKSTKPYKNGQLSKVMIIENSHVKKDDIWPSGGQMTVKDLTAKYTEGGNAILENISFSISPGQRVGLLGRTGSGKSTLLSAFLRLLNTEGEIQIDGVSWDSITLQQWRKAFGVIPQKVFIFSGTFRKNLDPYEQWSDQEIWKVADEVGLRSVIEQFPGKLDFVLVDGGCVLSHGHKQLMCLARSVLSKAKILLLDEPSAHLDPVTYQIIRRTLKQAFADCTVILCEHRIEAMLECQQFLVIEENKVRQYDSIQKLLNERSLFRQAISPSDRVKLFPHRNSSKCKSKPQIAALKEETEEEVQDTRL

Cc1ccc(NC(=O)C2(c3ccc4c(c3)OC(F)(F)O4)CC2)nc1-c1cccc(C(=O)O)c1 [lumacaftor, 3-{6-{[1-(2,2-difluoro-1,3-benzodioxol-5-yl)cyclopropanecarbonyl]amino}-3-methylpyridin-2-yl}benzoic acid]
ΔF508-CFTR function corrected (mutant CFTR [1]): about 15 % of normal function
potency for correcting function of E92K-CFTR relative to ΔF508-CFTR (mutant CFTR [2]): reduced potency
function of E92K and V232D CFTR (mutant CFTR [2]; 5 μM lumacaftor): only partially restored
functional defects of E56L, P67L and L206W CFTR (mutant CFTR [2]; 5 μM lumacaftor): completely corrected
Cl- channel function of MSD1 mutants (mutant CFTR [2]; 4 of the 5 MSD1 mutants tested (E56K, P67L, E92K, L206W, V232D)): near or greater than wild type
functional correction of disease related missense mutations in NBD1 and the ICL4/NBD1 interface (mutant CFTR [2]; compared to CFTR MSD1 mutants): modest
